Results taken from US11274295B2, “Methods for generating pools of variants of a DNA template” (priority 2012, dated 2022).

What was measured:
Assay type in all cases: cell-based
[1] = test system: E. coli expressing WT APH(3′)II; experiment: MIC of aminoglycosides in E. coli expressing WT APH(3′)II, immediately following transformation; conditions: Stellar cells transformed with WT pBR322-EM7-neo, LB with carbenicillin 50 μg/mL, 24 hrs, MIC = lowest dilution with A600 < 0.025; for MIC: Escherichia coli, read-out: estimated 1:1 WT MIC
Experimental: (§1) To determine the minimum inhibitory concentration (MIC) of each of the six aminoglycosides: kanamycin, ribostamycin, G418, amikacin, neomycin, paromomycin (Sigma-Aldrich, St. Louis, Mo.) in E. coli expressing WT APH(3′)II, Stellar cells were transformed with pBR322-EM7-neo, recovered in SOC medium (New England Biolabs (NEB), Ipswich, Mass.) at 37° C. for 1 hr, diluted 1:100 with LB and then divided into 96-well growth blocks containing LB with carbenicillin (50 μg/mL) and 2-fold serial dilutions of aminoglycosides. After growth at 37° C. with shaking for 24 hrs, the culture densities were assessed by absorbance at 600 nm (A600) using a NanoDrop 8000 (Thermo Scientific, Billerica, Mass.).
(§2) The cultures were incubated in 50 mL tubes at 37° C. with shaking for 24 hours, pelleted by centrifugation and frozen at −20° C. Plasmids were isolated from the pellets using QIAprep Spin Miniprep kits (Qiagen). Each transformation and selection was performed in duplicate, using each of the two independently generated mutant libraries.

[2] = test system: E. coli transformed with APH(3′)II substitution libraries; experiment: Mutational scanning selection of APH(3′)II substitution libraries in E. coli
Source text: To perform mutational scanning in vivo, we cultured E. coli transformed with APH(3′)II substitution libraries in liquid media supplemented with decreasing concentrations of one of six aminoglycoside antibiotics with diverse structures and a wide range of potencies: kanamycin, ribostamycin, G418, amikacin, neomycin or paromomycin (FIG. 3). To normalize the selective pressures induced by the different antibiotics, we first established their minimum inhibitory concentrations (MICs) for E. coli transformed with “wild-type” (WT) APH(3′)II and then used 1:1, 1:2, 1:4 and 1:8 dilutions of WT MICs for the respective library selections. We note that, with the exception of G418 and amikacin, even the 1:8 dilutions were sufficient to inhibit growth of untransformed E. coli. After overnight selection, plasmids were isolated from the surviving cells and their coding regions were shotgun sequenced to compare the amino acid composition of the selected libraries to that of the original input libraries (median coverage=51,400×).
as §2

untransformed e. coli = experiment: Growth inhibition of untransformed E. coli by aminoglycoside; conditions: Table 2 experiment
[3] = test system: E. coli transformed with APH(3′)II variants (pBR322[EM7-K1] through pBR322[EM7-K44]); experiment: MIC of aminoglycosides in E. coli carrying synthetic APH(3′)II variants, 2-fold dilution series, A600; conditions: E. coli expressing the APH(3′)II variant, 2-3 independent cultures
Experimental: as §1
To establish the substrate specificity of the synthetic APH(3′)II variants relative to WT APH(3′)II, glycerol stocks of the relevant clones (pBR322[EM7-K1] through pBR322[EM7-K44]) were streaked onto LB agar plates and cultured overnight at 37° C. Single colonies were then inoculated into 1 mL LB with 50 μg carbenicillin, incubated at 37° C. with shaking for 6 hours, diluted 1:100 into LB media, and then split into 96-well deep well plates containing LB with carbenicillin (50 μg/mL) and 2-fold serial dilutions of aminoglycosides dilution series. We note that the longer recovery in these follow-up experiments increased the absolute MICs compared to those we measured immediately following transformation).

Molecule: NC[C@@H]1O[C@H](O[C@H]2[C@@H](O)[C@H](O[C@@H]3[C@@H](O)[C@H](N)C[C@H](N)[C@H]3O[C@H]3O[C@H](CO)[C@@H](O)[C@H](O)[C@H]3N)O[C@@H]2CO)[C@H](N)[C@@H](O)[C@@H]1O [paromomycin]
- MIC [1]: 320 µg/mL

Molecule: CN[C@@H]1[C@@H](O)[C@@H](O[C@@H]2[C@@H](O)[C@H](O[C@H]3O[C@H]([C@@H](C)O)[C@@H](O)[C@H](O)[C@H]3N)[C@@H](N)C[C@H]2N)OC[C@]1(C)O [G418]
- estimated 1:1 WT MIC [1]: 5 µg/mL
- selection pressure ([2]; at its 1:8 WT MIC): did not provide an effective selection pressure

Molecule: NC[C@H]1O[C@H](O[C@H]2[C@H](O)[C@@H](O[C@H]3O[C@H](CO)[C@@H](O)[C@H](N)[C@H]3O)[C@H](N)C[C@@H]2N)[C@H](O)[C@@H](O)[C@@H]1O [kanamycin]
- MIC [1]: 225 µg/mL

Molecule: neomycin
- estimated 1:1 WT MIC [1]: 40 µg/mL

Molecule: NCC[C@H](O)C(=O)N[C@@H]1C[C@H](N)[C@@H](O[C@H]2O[C@H](CN)[C@@H](O)[C@H](O)[C@H]2O)[C@H](O)[C@H]1O[C@H]1O[C@H](CO)[C@@H](O)[C@H](N)[C@H]1O [amikacin]
- MIC [1]: 10 µg/mL
- lowest concentration that reliably inhibited growth of untransformed e. coli (untransformed e. coli): (*) 12.5 ug/mL was the lowest amikacin concentration that reliably inhibited growth of untransformed e. coli in this experiment. These estimated MICs therefore reflect total or near total loss of activity on both susbtrates.
- selection pressure ([2]; at its 1:4 and 1:8 WT MICs): did not provide an effective selection pressure

Molecule: NC[C@H]1O[C@H](O[C@H]2[C@H](O[C@@H]3O[C@H](CO)[C@@H](O)[C@H]3O)[C@@H](O)[C@H](N)C[C@@H]2N)[C@H](N)[C@@H](O)[C@@H]1O [ribostamycin]
- MIC [1]: 2500 µg/mL

B1: KKA2_KLEPN_opt_K1: Wild-type aminoglycoside-3′-phosphotransferase-II (APH(3′)II) (protein, UniProt P00552 1-264, looked up)
Aminoglycoside …: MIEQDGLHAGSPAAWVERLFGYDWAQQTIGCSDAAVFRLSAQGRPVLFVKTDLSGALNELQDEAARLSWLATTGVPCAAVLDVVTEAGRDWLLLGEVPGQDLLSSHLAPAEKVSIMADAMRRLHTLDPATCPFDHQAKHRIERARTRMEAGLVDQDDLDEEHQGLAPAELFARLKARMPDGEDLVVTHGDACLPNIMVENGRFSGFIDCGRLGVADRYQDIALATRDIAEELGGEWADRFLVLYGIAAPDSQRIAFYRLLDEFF
modifications: codon-optimized
- MIC of G418 [3]: 50.00 µg/mL
- MIC of amikacin [3]: 25.00 µg/mL
- MIC of kanamycin [3]: 2000.00 µg/mL
- MIC of neomycin [3]: 400.00 µg/mL
- MIC of paromomycin [3]: 4000.00 µg/mL
- MIC of ribostamycin [3]: 15000.00 µg/mL
